# Source: patent US20060234909A1, “Compositions and methods for increasing drug efficiency” (priority 2003, published 2006)
# Primed or numbered codes have the meaning given here. * marks the point of attachment. 3Am‑VBL = vinblastine (VBL) conjugate; PEG(11) = PEG(11) linker; PEG(11)″ = PEG11 linker; 3Am = not defined here; Boc = CC(C)(C)OC(=O)*; Piv = CC(C)(C)C(=O)*; VBL = vinblastine
# How the values were obtained:
# [1] = tested on: tubulin; assay: Fluorescence-based tubulin polymerization assay (MPA; enhancement for paclitaxel, inhibition for vinblastine); format: biochemical
# From the text: Drug-linker constructs may further be screened using functional assays predictive of biological activity. […] Tubulin assembly or inhibition thereof may be monitored by fluorescence using the CytoDYNAMIX Screen™ 10 kit available from Cytoskeleton (1830 S. Acoma St., Denver, Colo.). […] Emission is monitored at 405 nm with excitation at 360 nm. […] Tubulin assembly or inhibition may also be monitored by light scattering which is approximated by the apparent absorption at 350 nm. For paclitaxel drug conjugates BSA is employed to prevent aggregation and glycerol, which is a tubulin polymerization enhancer, is omitted from the kit to increase the signal to noise ratio.
# The assay kit (#BK011) was purchased from Cytoskeleton (Denver, Colo.). The assays were carried out according to the manufacturer's instructions, except that 1 mg/ml BSA (Sigma #A3059) was included in all assays. […] Parent drugs and conjugates were tested at 0.75, 1.5, 3 and 10 micromolar final concentration and results represent a comparison of conjugate and parent drug curves obtained from the linear range of the dose responses.
# (±SD) represent the average of all tests carried out for all lots of a given compound.
# [2] = tested on: HUVEC; assay: Cytotoxicity assay (monolayer), HUVEC; format: cell-based; conditions: ML (monolayer), read-out: HUVEC (EC50 Ave) ML
# [3] = tested on: HT-29 colorectal carcinoma; assay: Cytotoxicity assay (monolayer), HT-29; format: cell-based; conditions: HT29, ML (monolayer); read-out: HT29 (EC50 Ave) ML;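 also: monolayer cultures tested in triplicate, compound exposure for three days against DMSO vehicle controls, EC50 fitted from dose-response curves and averaged across all tests and lots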
# [4] = tested on: HT-29 cells; conditions: read-out: HT29 (EC50 Ave) SA; HT29, SA (soft agar)
# [5] = tested on: MCF-7 cells; conditions: read-out: MCF7 (EC50 Ave) SA; MCF7, SA (soft agar)
# [6] = tested on: MCF-7 breast carcinoma; assay: Cytotoxicity assay (monolayer), MCF-7; format: cell-based; conditions: MCF7, ML (monolayer); read-out: MCF7 (EC50 Ave) ML;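 also: cells treated 72 h with 6-8 compound doses versus DMSO vehicle controls, EC50 fitted by 4-parameter dose-response curves, averaged across all tests and lots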
# [7] = tested on: Normal human foreskin fibroblasts (HFF); conditions: read-out: HFF (EC50 Ave) ML; HFF, ML (monolayer)
# [8] = target: T1, Human Src (Homo sapiens, UniProt P12931); assay: Src kinase assay (PKLight ATP utilization, substrate phosphorylation as % of parent peptide); format: biochemical
# T1 construct: purchased Upstate (Charlottesville, Va.) 14-326
# Description: Another test may involve monitoring the consumption of ATP. For example, ATP concentrations at time 0 or after 4 hour incubation may be monitored by luciferase reaction (PKLight kit obtained from Cambrex Corporation, One Meadowlands Plaza, East Rutherford, N.J. 07073), which generate a luminescence readout in the presence of ATP. Assays are initiated by mixing a kinase and a peptide in the presence of 40 μM ATP. After 4 hour of incubation at 30° C., PKLight reagent is added and mixed well, and luminescence readout measured. The rate of peptide phosphorylation is then directly related to the rate of decrease in the observed luminescence. Based on the first test, linkers of appropriate lengths and peptides with an effective amount of kinase activity which may be expected to be retained in the drug conjugate may be found.
# Human Src (#14-326) and Akt (#14-276) kinases were purchased from Upstate (Charlottesville, Va.). Kinase reactions were carried out in 50 μl kinase reaction cocktail (25 mM Tris-HCl, pH 7.5, 5 μM β-glycerophosphate, 2 mM DTT, 0.1 mM Na3VO4, 10 mM MgCl2, 1 mg/ml BSA, […], 0.5 to 1.0 units enzyme). Substrates (peptide or drug-peptide conjugate in […]) were added (25, 50 and 100 μM) and the reaction was incubated for 2-5 hours at 30° C. PKLight reagent (23 μl) (Cambrex BioSciences, Rockland, Me.) was mixed with […] of the above kinase reaction and ATP utilization relative to no substrate and no ATP controls was determined by measuring luminescence with a SpectraMax Gemini EM plate reader (Molecular Devices, Sunnyvale, Calif.). Peptide substrates for Src and Akt have been described. For examples, see Lou et al. Letters in Peptide Science, 2, 289-296 (1995); Lou et al. Bioorganic & Medicinal Chemistry, 4, 677-682 (1996); Alessi et al. FEBS Letters, 399, 333-338 (1996). Substrate phosphorylation potential was determined from the linear portion of the substrate concentration dose response as a percentage of the activity observed with the parent peptide used for drug conjugation.
Compound,Ave. MPA Act. [1],EC50 [2],EC50 [3],EC50 [4],EC50 [5],EC50 [6],EC50 [7],Average src kinase activity [8]
CC[C@]1(O)CC2CN(CCc3c([nH]c4ccccc34)[C@@](C(=O)OC)(c3cc4c(cc3OC)N(C)[C@H]3C(O)(C(=O)NCCOCCOCCOCCN)[C@H](O)[C@]5(CC)C=CCN6CCC43[C@@H]65)C2)C1 (stereo partly shown) [VBL-3Am-PEG(11)-NH2],B (B=50-80),< 20 nM,20 to 100 nM,< 20 nM,< 20 nM,20 to 100 nM,< 20 nM,–
CC(=O)O[C@@]12CO[C@@H]1C[C@H](O)[C@@]1(C)C(=O)[C@H](O)C3=C(C)[C@@H](OC(=O)[C@H](O)[C@@H](NC(=O)c4ccccc4)c4ccccc4)C[C@@](O)([C@@H](OC(=O)c4ccccc4)[C@H]21)C3(C)C [10 Deacetyl Taxol],–,< 20 nM,< 20 nM,< 20 nM,< 20 nM,20 to 100 nM,< 20 nM,–
H-YIYGSFK-PEG(11)-3Am-VBL (H-YIYGSFK-{PEG(11)-3Am-VBL}; reading uncertain),B (B=50-80),> 100 nM,> 100 nM,–,–,> 100 nM,20 to 100 nM,C (C>40)
Pv-EYIYGSFR-PEG(11)-3Am-VBL (Piv-EYIYGSFR-{PEG(11)-3Am‑VBL}),C (C>80),> 100 nM,> 100 nM,–,–,> 100 nM,> 100 nM,C (C>40)
BOC-YIYGSFK(BOC)-PEG(11)-3Am-VBL (N-BOC; BOC side chain; PEG(11); vinblastine conjugate),B (B=50-80),> 100 nM,20 to 100 nM,–,–,20 to 100 nM,> 100 nM,A (A<20)
CBz-YIFGSFK-PEG(11)-3Am-VBL (N-CBz; PEG(11) linker; vinblastine conjugate),B (B=50-80),> 100 nM,> 100 nM,–,–,> 100 nM,> 100 nM,A (A<20)
CBz-RPRTSSF-PEG(11)-3Am-VBL (N-CBz; PEG(11) linker; vinblastine conjugate),–,–,< 20 nM,–,20 to 100 nM,< 20 nM,–,–
Ac-YIFGSFK(BOC)-PEG(11)-3Am-VBL (Ac-YIFGSFK(Boc)-{PEG(11)″-3Am-VBL}; reading uncertain; also: printed as Ac-YIFGSFK(BOC)-PEG(11)-3Am-VBL),B (B=50-80),> 100 nM,> 100 nM,–,–,> 100 nM,> 100 nM,B (B=20-40)
Ac-YIYGSFR-PEG(13)-10Ca-PXL (N-acetyl; PEG(13) linker; paclitaxel conjugate),B (B=50-80),> 100 nM,> 100 nM,–,–,> 100 nM,> 100 nM,C (C>40)
BOC-YIYGSFS-PEG(11)-3Am-VBL (N-BOC; PEG(11) linker; vinblastine conjugate),C (C>80),> 100 nM,> 100 nM,–,–,> 100 nM,> 100 nM,C (C>40)
"Ac-EYIYGSFR-PEG(13)-10Ca-PXL (N-acetyl, PEG13, paclitaxel conjugate)",B (B=50-80),> 100 nM,> 100 nM,–,–,> 100 nM,> 100 nM,B (B=20-40)
Ac-YIYGSFH-PEG(11)-3Am-VBL (N-acetyl; PEG(11) linker; vinblastine conjugate),C (C>80),> 100 nM,> 100 nM,–,–,> 100 nM,> 100 nM,C (C>40)
